Data on 23 compounds can be found in patent US12325697B2 (Nimbus Clio, Inc., priority 2021, dated 2025).

Structures are written as SMILES.

For the test, the target named is Recombinant human Cbl-b (aa 36-427) (Homo sapiens (Human), UniProt Q13191). As to the kind of experiment: Cbl-b Biochemical Assay (TR-FRET). The following applies: read-out: TR-FRET hCbl-b IC50. As to the method: Recombinant human Cbl-b (aa 36-427) was expressed in E. coli, purified and biotinylated in vitro. The protein was diluted to 12 nM in freshly prepared assay buffer consisting of 50 mM HEPES, pH 7.0, 100 mM NaCl, 5 mM MgCl2, 0.01% Triton-X 100, 0.01% BSA and 1 mM DTT. Recombinant human Src (aa 254-536)-[…]-Zap-70 (aa 281-297) fusion protein was expressed in E. coli and purified. Protein was diluted in assay buffer to 2-5 nM and supplemented with ATP to 1 mM. Fluorescein-BODIPY labeled UBE[…]([…])-Ub was prepared by conjugating ubiquitin (Ub) labeled at its N-terminus with Fluorescein-BODIPY maleimide (ThermoFisher Catalog no B10250) to E. coli expressed and purified UBE[…]([…]) [see Dou et al Nature Structural and Molecular Biology 8: 982-987, 2013]. Recombinant human UBE2D2([…]) was expressed in E. coli, purified and ubiquitinated and Bodipy labelled in vitro. Protein was diluted to 200 nM in assay buffer without MgCl2 (or Cisbio PPI buffer). Streptavidin-Terbium was added to 2 nM and EDTA to 10 mM, to provide a binding assay mix. Compounds were dissolved in DMSO and diluted to prepare a ten-point dilution series. 100 nl of each compound concentration was dispensed in duplicate in a 384 well black assay plate using acoustic dispensing. Wells for maximum signal controls received 100 nl of DMSO only and wells for minimum signal controls received 100 nl of a reference inhibitor compound at a final assay concentration of […] to produce 100% inhibition. 5 μl of diluted Cbl-b enzyme was added to all wells of the assay plate and incubated at RT for 30-60 min. The enzyme assay was initiated by addition of 5 μl of Src-Zap/ATP mix to all wells, and the plate incubated at RT for 60 min. The enzyme reaction was terminated and the binding reaction was initiated by adding 10 μl of binding assay mix to all wells and incubating the plate at RT for 60 min prior to assay read. Final assay conditions consisted of 6 nM Cbl-b, 1-2.5 nM Src-Zap70, 0.5 mM ATP, 1% (v/v) DMSO (enzyme reaction) and 100 nM UBE2D2([…])-Ub-FL-BODIPY, 5 mM EDTA, 1 nM Streptavidin-Tb (binding reaction). The HTRF assay signal was measured at 520 nm on an Envision plate reader, with reference signal at 485 or 620 nm. Data was normalized using maximum and minimum assay controls: % Inhibition=100-(100*((maximum control)-unknown)/(maximum control-minimum control)). A 4-parameter dose-response equation was used to fit the normalized dose-response data and derive an IC50 for test compounds.
Recombinant human Cbl-b (aa 36-427), sequence (Q13191 36-427): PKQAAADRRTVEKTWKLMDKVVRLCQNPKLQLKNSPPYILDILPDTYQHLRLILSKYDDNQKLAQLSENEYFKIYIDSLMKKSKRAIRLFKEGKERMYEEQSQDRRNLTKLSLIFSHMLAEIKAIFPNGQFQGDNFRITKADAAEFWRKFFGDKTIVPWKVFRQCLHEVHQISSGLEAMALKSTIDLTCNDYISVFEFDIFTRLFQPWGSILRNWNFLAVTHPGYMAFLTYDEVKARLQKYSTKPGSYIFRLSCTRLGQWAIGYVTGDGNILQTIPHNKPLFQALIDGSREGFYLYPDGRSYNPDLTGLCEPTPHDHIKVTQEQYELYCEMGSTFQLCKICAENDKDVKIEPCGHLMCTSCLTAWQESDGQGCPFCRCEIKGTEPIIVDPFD
A general note: Time-resolved FRET reads energy transfer from a long-lived donor to a nearby acceptor.
In the case of `Cn1cnnc1-c1ccccc1-c1cccc(NC(=O)c2cc(=O)n(CCN3CCCC3)c(C3CC3)n2)c1` [ABM-1, 2-Cyclopropyl-N-(2′-(4-methyl-4H-1,2,4-triazol-3-yl)-[1,1′-biphenyl]-3-yl)-6-oxo-1-(2-(pyrrolidin-1-yl)ethyl)-1,6-dihydropyrimidine-4-carboxamide], the IC50 (usually the concentration at which inhibition is half-maximal) was in the range of 1000 to 10000 nM. Regarding `Cn1cnnc1-c1cnn(C)c1-c1cc(Cl)nc(N2Cc3c(cccc3C(F)(F)F)C2=O)c1` [AAN-7, 2-(6-Chloro-4-(1-methyl-4-(4-methyl-4H-1,2,4-triazol-3-yl)-1H-pyrazol-5-yl)pyridin-2-yl)-4-(trifluoromethyl)isoindolin-1-one], the IC50 was in the range of 1000 to 10000 nM.

With `CCNc1cc(-c2ccccc2-c2nncn2C)cc(N2Cc3c(cc(CO)cc3C(F)(F)F)C2=O)n1` [AD-3, 2-(6-(Ethylamino)-4-(2-(4-methyl-4H-1,2,4-triazol-3-yl)phenyl)pyridin-2-yl)-6-(hydroxymethyl)-4-(trifluoromethyl)isoindolin-1-one], the IC50 is ≤ 200 nM.

As to `C[C@@H]1CCCN(Cc2cc3c(c(C(F)(F)F)c2)CN(c2cccc(-c4ccccc4-c4nncn4C)c2)C3=O)C1` [Example S-2, (R)-2-(2′-(4-Methyl-4H-1,2,4-triazol-3-yl)-[1,1′-biphenyl]-3-yl)-6-((3-methylpiperidin-1-yl)methyl)-4-(trifluoromethyl)isoindolin-1-one], the 50% inhibitory concentration (IC50) was in the range of 200 to 1000 nM. Take `C[C@H]1CCCN(Cc2cc3c(c(C(F)(F)F)c2)CN(c2cccc(-c4ccccc4-c4nncn4C)c2)C3=O)C1` [Example R-2, (S)-2-(2′-(4-Methyl-4H-1,2,4-triazol-3-yl)-[1,1′-biphenyl]-3-yl)-6-((3-methylpiperidin-1-yl)methyl)-4-(trifluoromethyl)isoindolin-1-one]: the IC50 was ≤ 200 nM. With `CN(C)c1cc(-c2ccccc2-c2nncn2C)cc(N2Cc3c(cc(CO)cc3C(F)(F)F)C2=O)n1` [AD-4, 2-(6-(dimethylamino)-4-(2-(4-methyl-4H-1,2,4-triazol-3-yl)phenyl)pyridin-2-yl)-6-(hydroxymethyl)-4-(trifluoromethyl)isoindolin-1-one], the IC50 is 200 to 1000 nM. In the case of `CCNc1cc(-c2ccccc2-c2nncn2C)cc(N2Cc3c(cc(CN4CCOCC4)cc3C(F)(F)F)C2=O)n1` [AM-2, 2-(6-(Ethylamino)-4-(2-(4-methyl-4H-1,2,4-triazol-3-yl)phenyl)pyridin-2-yl)-6-(morpholinomethyl)-4-(trifluoromethyl)isoindolin-1-one], the IC50 is ≤ 200 nM.

With `CCNc1cc(-c2c(-c3nncn3C)cnn2C)cc(NC(=O)c2cc(OCCN3CCCC3)nc(C3CC3)n2)n1` [ABU-2, 2-Cyclopropyl-N-(6-(ethylamino)-4-(1-methyl-4-(4-methyl-4H-1,2,4-triazol-3-yl)-1H-pyrazol-5-yl)pyridin-2-yl)-6-(2-(pyrrolidin-1-yl)ethoxy)pyrimidine-4-carboxamide], the IC50 fell in the range of 200 to 1000 nM. For `CCNc1cc(-c2c(-c3nncn3C)cnn2C)cc(NC(=O)c2cc(CN3CCC4(CC4)C3)cc(C3CC3)n2)n1` [ABF-8, 4-((5-Azaspiro [2.4]heptan-5-yl)methyl)-6-cyclopropyl-N-(6-(ethylamino)-4-(1-methyl-4-(4-methyl-4H-1,2,4-triazol-3-yl)-1H-pyrazol-5-yl)pyridin-2-yl)picolinamide], the IC50 was ≤ 200 nM.

Take `CCNc1cc(-c2c(-c3nncn3C)cnn2C)cc(C(=O)O)n1` [ABQ-1, 6-(Ethylamino)-4-(1-methyl-4-(4-methyl-4H-1,2,4-triazol-3-yl)-1H-pyrazol-5-yl)picolinic acid]: the IC50 is 10000 to 50000 nM.

For `CCNc1cc(-c2c(-c3nncn3C)cnn2C)cc(N2Cc3c(cc(CN4CC[C@@H](F)C4)cc3C(F)(F)F)C2=O)n1` [ACA-1, (R)-2-(6-(Ethylamino)-4-(1-methyl-4-(4-methyl-4H-1,2,4-triazol-3-yl)-1H-pyrazol-5-yl)pyridin-2-yl)-6-((3-fluoropyrrolidin-1-yl)methyl)-4-(trifluoromethyl)isoindolin-1-one], the concentration for half-maximal inhibition (IC50) was ≤ 200 nM. For the compound `CCNc1cc(-c2c(-c3nncn3C)cnn2C)cc(N2Cc3c(cc(O)cc3C(F)(F)F)C2=O)n1` [ACQ-7, 2-(6-(Ethylamino)-4-(1-methyl-4-(4-methyl-4H-1,2,4-triazol-3-yl)-1H-pyrazol-5-yl)pyridin-2-yl)-6-hydroxy-4-(trifluoromethyl)isoindolin-1-one], the IC50 was ≤ 200 nM. With `CCNc1cc(-c2c(-c3nncn3C)cnn2C)cc(N2Cc3c(cc(CN4CC(F)C4)cc3C(F)(F)F)C2=O)n1` [ABN-2, 2-(6-(Ethylamino)-4-(1-methyl-4-(4-methyl-4H-1,2,4-triazol-3-yl)-1H-pyrazol-5-yl)pyridin-2-yl)-6-((3-fluoroazetidin-1-yl)methyl)-4-(trifluoromethyl)isoindolin-1-one], the IC50 was ≤ 200 nM. In the case of `CCNc1cc(-c2ccccc2-c2nncn2C)cc(N2Cc3c(cc(CN4CC[C@H](F)C4)cc3C(F)(F)F)C2=O)n1` [AJ-1, (S)-2-(6-(Ethylamino)-4-(2-(4-methyl-4H-1,2,4-triazol-3-yl)phenyl)pyridin-2-yl)-6-((3-fluoropyrrolidin-1-yl)methyl)-4-(trifluoromethyl)isoindolin-1-one], the IC50 was ≤ 200 nM.

As to `Cn1cnnc1-c1ccccc1-c1cccc(N2Cc3c(cc(CN[C@H]4CCC[C@@H]4O)cc3C(F)(F)F)C2=O)c1` [Example T-2, 6-((((1S,2S)-2-Hydroxycyclopentyl)amino)methyl)-2-(2′-(4-methyl-4H-1,2,4-triazol-3-yl)-[1,1′-biphenyl]-3-yl)-4-(trifluoromethyl)isoindolin-1-one], the IC50 is ≤ 200 nM. As to `Cn1cnnc1-c1ccccc1-c1cc(N2Cc3c(cccc3C(F)(F)F)C2=O)cc(C(F)(F)F)c1` [Example K-3, 2-(2′-(4-Methyl-4H-1,2,4-triazol-3-yl)-5-(trifluoromethyl)-[1,1′-biphenyl]-3-yl)-4-(trifluoromethyl)isoindolin-1-one], the IC50 lay within 1000 to 10000 nM. As for `COc1ccc(-c2ccccc2-c2nncn2C)cc1N1Cc2c(cccc2C(F)(F)F)C1=O` [Example G-4, 2-(4-Methoxy-2′-(4-methyl-4H-1,2,4-triazol-3-yl)-[1,1′-biphenyl]-3-yl)-4-(trifluoromethyl)isoindolin-1-one], the IC50 was in the range of 10000 to 50000 nM. With `Cn1cnnc1-c1ccccc1-c1cccc(N2Cc3c(cc(CO)cc3C(F)(F)F)C2=O)c1` [Example P-2, 6-(Hydroxymethyl)-2-(2′-(4-methyl-4H-1,2,4-triazol-3-yl)-[1,1′-biphenyl]-3-yl)-4-(trifluoromethyl)isoindolin-1-one] the figure was 200 to 1000 nM. In the case of `Cn1cnnc1-c1ccccc1-c1cc(NCCO)nc(N2Cc3c(cccc3C(F)(F)F)C2=O)c1` [ABT-2, 2-(6-((2-Hydroxyethyl)amino)-4-(2-(4-methyl-4H-1,2,4-triazol-3-yl)phenyl)pyridin-2-yl)-4-(trifluoromethyl)isoindolin-1-one], the IC50 lay in the range of 200 to 1000 nM. With `Cn1cnnc1-c1cnn(C)c1-c1cccc(N2Cc3c(cc(CN4CCC5(CC5)C4)cc3C(F)(F)F)C2=O)c1` [AAD-1, 6-((5-Azaspiro [2.4]heptan-5-yl)methyl)-2-(3-(1-methyl-4-(4-methyl-4H-1,2,4-triazol-3-yl)-1H-pyrazol-5-yl)phenyl)-4-(trifluoromethyl)isoindolin-1-one], the IC50 is ≤ 200 nM. As to `CCNc1cc(-c2ccccc2-c2nncn2C)cc(N2Cc3c(cc(CN4CCC5(CC5)C4)cc3C(F)(F)F)C2=O)n1` [ABR-1, 6-((5-Azaspiro [2.4]heptan-5-yl)methyl)-2-(6-(ethylamino)-4-(2-(4-methyl-4H-1,2,4-triazol-3-yl)phenyl)pyridin-2-yl)-4-(trifluoromethyl)isoindolin-1-one], the IC50 is ≤ 200 nM.

Turning to `CCNc1cc(-c2c(-c3nncn3C)cnn2C)cc(N2Cc3c(cc(CO)cc3C(F)(F)F)C2=O)n1` [ACH-1, 2-(6-(Ethylamino)-4-(1-methyl-4-(4-methyl-4H-1,2,4-triazol-3-yl)-1H-pyrazol-5-yl)pyridin-2-yl)-6-(hydroxymethyl)-4-(trifluoromethyl)isoindolin-1-one], the IC50 is ≤ 200 nM. As for `Cn1cnnc1-c1ccncc1-c1cccc(N2Cc3c(cccc3C(F)(F)F)C2=O)c1` [ABB-5, 2-[3-[4-(4-Methyl-1,2,4-triazol-3-yl)pyridin-3-yl]phenyl]-4-(trifluoromethyl)-3H-isoindol-1-one], the IC50 is 1000 to 10000 nM.
